Data taken from US7018631B1, “Compositions and methods for sensitizing and inhibiting growth of human tumor cells” (St. Jude Children's Research Hospital, priority 1998, dated 2006).
pIC50: −log10 of the molar value. “Also recorded” adds a separate entry of the source. Where two headings read alike, the source gives them in different places.

Columns and labels:
[1] = biological target: T1, rabbit liver CE (Oryctolagus cuniculus, UniProt P12337); experiment: In vitro conversion of APC to SN-38 by rabbit liver CE; format: biochemical; conditions: FIG. 6
T1 sequence (P12337 19-565): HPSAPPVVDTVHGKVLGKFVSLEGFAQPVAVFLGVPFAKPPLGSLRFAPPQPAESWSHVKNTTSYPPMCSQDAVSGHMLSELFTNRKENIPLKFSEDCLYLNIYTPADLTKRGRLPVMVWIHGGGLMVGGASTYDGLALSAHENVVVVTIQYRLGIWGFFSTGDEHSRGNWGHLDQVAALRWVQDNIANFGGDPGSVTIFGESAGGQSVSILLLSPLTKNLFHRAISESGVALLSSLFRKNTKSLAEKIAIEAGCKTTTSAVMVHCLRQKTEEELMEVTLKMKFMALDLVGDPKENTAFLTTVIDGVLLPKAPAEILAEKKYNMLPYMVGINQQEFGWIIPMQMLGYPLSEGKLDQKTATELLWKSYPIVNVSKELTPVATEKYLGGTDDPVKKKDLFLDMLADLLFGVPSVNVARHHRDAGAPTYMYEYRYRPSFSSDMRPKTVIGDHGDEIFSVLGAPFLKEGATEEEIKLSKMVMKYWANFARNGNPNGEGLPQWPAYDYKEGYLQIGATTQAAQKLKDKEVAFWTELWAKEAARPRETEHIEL
Description: FIG. 6 is a linegraph showing the conversion of APC, depicted on the X-axis at nanomolar concentrations, to SN-38, depicted on the Y-axis at nanomolar concentrations, in vitro by the activity of rabbit liver CE given at doses of 0 (filled cross), 10 (filled hexagon), 25 (filled triangle), 50 (filled circle) or 100 (filled square) units. Data presented represent the mean response at each dose level.
(§1) No known human enzyme activates APC. […] Thus, the combination of APC and sensitization of selected tumor cells with rabbit liver CE as described above can be used to produce a tumor-specific cell death while greatly minimizing the toxic side effects associated with administration of chemotherapy.

[2] = system: U-373 glioma cells; experiment: Sensitization of U-373 glioma cells expressing CE to APC; format: cell-based, human; conditions: 2 h exposure
Description: FIG. 7 is a linegraph showing a comparison of the sensitization, depicted as % survival on the Y-axis, of U-373 glioma cells exposed to APC, depicted as log[APC] at concentrations from 10^−8 to 10^−5 M on the X-axis, from in situ expression of rabbit liver CE (filled squares) and human alveolar macrophage CE (filled circles). Cells were exposed for 2 hours to APC.
as §1

[3] = system: Rh30 cells; experiment: Growth inhibition of Rh30 cells by CPT-11 pre-incubated with rabbit liver CE; format: cell-based, human; conditions: 1 to 5 units of CE inactivated by heating; 1 h exposure
Description: Another aspect of the present invention relates to the ability of compositions of the present invention comprising a polynucleotide encoding a carboxylesterase and a disease-specific responsive promoter of selected tumor cells to sensitize the tumor cells to a chemotherapeutic prodrug. The ability of the combination of a rabbit CE of the present invention and CPT-11 to sensitize human tumor cells to CPT-11 was examined. Experiments were first performed to confirm that the metabolite produced by the activity of a CE of the present invention is biologically active in vitro. Rh30 cells were then exposed to the products of each reaction for one hour and the percentage of growth inhibition was determined.
Each reaction mixture was then filter-sterilized and Rh30 cells were exposed to drug for one hour, at which time the medium was replaced with drug-free medium containing serum. […] Cells were allowed to grow for 3 cell doubling times and cell numbers were determined.

[4] = system: Rh30 rhabdomyosarcoma cells; experiment: Growth inhibition by CPT-11 of Rh30 cells stably transfected with pIRES or rabbit CE cDNA; format: cell-based; conditions: Homo sapiens, Rh30, 2 h, 2 h exposure
Description: The in vitro activity of rabbit liver CE was examined in tumor cell lines. […] Optimized conditions for electroporation were achieved using 180 V and 960 uF. […] Cells were grown for a minimum of 10 days before use in growth inhibition experiments. […] Drug was added to tissue culture medium of each of the stably transfected cell lines for two hours, after which time the medium was replaced with drug-free medium. Cells were then allowed to grow for 3 cell doublings as before.

[5] = system: Rh30 rhabdosarcoma xenografts; experiment: Rh30 and Rh30pIRESrabbit xenografts in SCID mice treated with CPT-11; format: in vivo; conditions: for tumor response: 2.5 mg CPT-11/kg/day, three cycles
Description: The tumor growth rate is depicted on the Y-axis of each graph in terms of tumor volume and is plotted as a function of time in weeks (X-axis).
In this preclinical model, expression of the transfected cDNA for rabbit CE was maintained for at least 12 weeks.
Experiments were performed in this model to compare the responses of mice bearing human Rh30 and Rh30pIRESrabbit xenografts. Rh30 rhabdosarcoma xenografts were transfected with pIRESneo plasmid containing the cDNA for rabbit liver CE and selected with G418. Expression of CE was confirmed by biochemical assay using the CE substrate o-NPA and maintained for at least 12 weeks. Two groups of SCID mice were then injected with the transfected Rh30pIRESrabbit cells subcutaneously into the flanks. A third group of control mice was injected in identical fashion with Rh30 cells not transfected with the plasmid.

[6] = system: U373 glioblastoma xenografts; experiment: U373 glioblastoma xenografts in SCID mice treated with CPT-11; format: in vivo; conditions: 7.5 mg/kg/day, three cycles
Description: The tumor growth rate is depicted on the Y-axis in terms of tumor volume and is plotted as a function of time in weeks (X-axis). Open circles depict the tumor volume of untreated U373 xenografts expressing rabbit CE. Filled triangles depict the response of control xenografts (no rabbit CE) treated with CPT-11. Filled squares depict the response of cells expressing rabbit CE and treated with CPT-11. […] Each point represents the mean of 14 tumors in 7 individual mice.
Similar studies were performed employing U373 glioblastoma cells transfected with the pIRESneo plasmid or with pIRESneo containing the cDNA for rabbit liver CE and selected with G418. Expression of CE in the tumor cells was confirmed by biochemical assay using the substrate o-NPA. Cells were injected subcutaneously into the flanks of the SCID mice.

[7] = system: human NB-1691 xenografts; experiment: NB-1691 xenograft model for MRD; format: in vivo, mice; conditions: 10 mg/kg CPT-11 daily for 5 days on two consecutive weeks
Description: However, within 4–6 weeks, tumors are palpable in the exact position where the original xenograft was implanted. Since these tumors arise from cells that survived the initial cycle of chemotherapy, this model therefore mimics results seen in patients following surgical resection of the primary tumor and subsequent regrowth at the same site.

[8] = biological target: T1, rabbit liver CE; experiment: Metabolism of CPT-11 by commercially available rabbit liver CE, rapid fluorometric assay; format: biochemical; conditions: partially purified commercial rabbit liver CE
Description: (§2) The commercially available pig CE contained several proteins. […] Therefore, the rabbit proteins were chosen for further study.

[9] = system: pig liver CE; experiment: Metabolism of CPT-11 by commercially available pig liver CE, rapid fluorometric assay; format: biochemical; conditions: partially purified commercial pig liver CE
Description: as §2

[10] = system: Rh18 RMS xenografts; conditions: cited from earlier work
[11] = system: CEs purified from human tissues; conditions: human CE; cited from earlier work
[12] = patients; cited from earlier work
[13] = biological target: T2, topoisomerase I (Homo sapiens, UniProt P11387); conditions: cited from earlier work
T2 sequence (P11387 1-765): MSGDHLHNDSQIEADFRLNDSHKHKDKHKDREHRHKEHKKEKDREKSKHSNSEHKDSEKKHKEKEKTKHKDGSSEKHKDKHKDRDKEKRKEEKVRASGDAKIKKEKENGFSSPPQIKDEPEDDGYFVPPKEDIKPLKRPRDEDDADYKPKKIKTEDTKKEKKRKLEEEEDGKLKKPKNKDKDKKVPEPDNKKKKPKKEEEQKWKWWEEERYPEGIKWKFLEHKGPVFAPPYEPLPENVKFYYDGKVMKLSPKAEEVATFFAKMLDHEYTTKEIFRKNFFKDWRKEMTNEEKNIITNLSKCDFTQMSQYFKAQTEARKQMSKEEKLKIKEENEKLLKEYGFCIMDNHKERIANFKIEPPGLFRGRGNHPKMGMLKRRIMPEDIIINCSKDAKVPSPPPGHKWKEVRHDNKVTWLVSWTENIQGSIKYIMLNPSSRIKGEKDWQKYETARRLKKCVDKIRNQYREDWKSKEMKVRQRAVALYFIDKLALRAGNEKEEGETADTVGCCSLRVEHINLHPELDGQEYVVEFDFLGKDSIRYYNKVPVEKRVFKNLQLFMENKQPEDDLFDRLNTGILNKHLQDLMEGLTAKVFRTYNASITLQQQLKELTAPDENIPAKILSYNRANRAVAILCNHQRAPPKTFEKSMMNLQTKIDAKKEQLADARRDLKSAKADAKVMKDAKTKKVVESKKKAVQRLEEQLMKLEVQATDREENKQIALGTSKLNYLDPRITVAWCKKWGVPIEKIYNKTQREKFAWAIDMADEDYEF

[14] = tumors not expressing CE (Rh30)

For CCc1c2c(nc3ccc(OC(=O)N4CCC(NCCCCC(=O)O)CC4)cc13)-c1cc3c(c(=O)n1C2)COC(=O)[C@]3(O)CC [APC], the “conversion of APC to SN-38” value [1] was “converted to SN-38 in a concentration-dependent manner”, the “sensitization to growth inhibitory effects of APC” value ([2]; U-373 cells expressing human alveolar macrophage CE) was “not” and the “sensitization to growth inhibitory effects of APC” value ([2]; U-373 cells expressing rabbit liver CE) was “sensitized”.
For CCc1c2c(nc3ccc(OC(=O)N4CCC(N5CCCCC5)CC4)cc13)-c1cc3c(c(=O)n1C2)COC(=O)[C@]3(O)CC [CPT-11, 7-ethyl-10-[4-(1-piperidino)-1-piperidino]carbonyloxycamptothecin], the “inhibition of cell growth” value [3] was “no inhibition of cell growth”, the pIC50 ([4]; read-out: IC50 of CPT-11, Rh30pIRES cells (no CE cDNA)) was 5.36 and the pIC50 ([4]; read-out: IC50 of CPT-11, Rh30pIRESrabbit cells (rabbit CE cDNA)) was 6.24. For the same molecule, the tumor response ([5]; tumors expressing rabbit CE (Rh30pIRESrabbit), 5 days/week for 2 weeks, 12 weeks) was “complete tumor regression; also recorded: regressed completely and did not regrow”, the “time to regrowth after CPT-11 treatment stopped” value [5, 14] was “within one week” and the tumor response [5, 14] was “initial regression but regrowth; also recorded: regressed only transiently”. The tumor response ([6]; xenografts from cells transfected with control plasmid (no rabbit CE)) was “stable disease but no significant regression; also recorded: stable disease with no significant regression”, the tumor response ([6]; xenografts from cells transfected with plasmid encoding rabbit CE) was “tumor regression was seen only in treated cells expressing rabbit CE; also recorded: regressed completely” and the “time until tumors are palpable again at the original site” value [7] was 4–6 weeks. For the same molecule, the tumor response [7] was “complete regression”, the “metabolism of CPT-11” value [8] was “metabolized CPT-11 efficiently” and the “metabolism of CPT-11” value [9] was “metabolized CPT-11 efficiently”. For the same molecule, the tumor response ([10]; 10 mg/kg/day, same schedule) was “only partial tumor regression”, the tumor response ([10]; 20 mg of CPT-11/kg/day daily for 5 days for two weeks) was “complete regressions” and the “prodrug converted to active drug SN-38” value [11] was “less than 5%”. The dose-limiting toxicities [12] was “myelosuppression and secretory diarrhea”.
In the case of CCc1c2c(nc3ccc(O)cc13)-c1cc3c(c(=O)n1C2)COC(=O)[C@]3(O)CC [SN-38, 7-ethyl-10-hydroxy-camptothecin], the “inhibition of topoisomerase I” value [13] is given as “potent inhibitor”.
